Measured values as given in PMC4663080 (Journal of enzyme inhibition and medicinal chemistry, 2010).
pKi: −log10 of the molar value.

Assays:
[1] = molecular target: T1, Electrophorus electricus AChE (Electrophorus electricus, UniProt O42275); assay type: biochemical
[2] = molecular target: T1, Electrophorus electricus AChE; assay: Steady-state enzyme kinetics of AChE in the presence of nantenine; assay type: biochemical
AChE [3] = molecular target: AChE (Electrophorus electricus, UniProt O42275); assay: TLC anticholinesterase bioautographic assay; assay type: biochemical; conditions: compared with galanthamine (1)
Chain of AChE (Electrophorus electricus, UniProt O42275) (O42275 24-633): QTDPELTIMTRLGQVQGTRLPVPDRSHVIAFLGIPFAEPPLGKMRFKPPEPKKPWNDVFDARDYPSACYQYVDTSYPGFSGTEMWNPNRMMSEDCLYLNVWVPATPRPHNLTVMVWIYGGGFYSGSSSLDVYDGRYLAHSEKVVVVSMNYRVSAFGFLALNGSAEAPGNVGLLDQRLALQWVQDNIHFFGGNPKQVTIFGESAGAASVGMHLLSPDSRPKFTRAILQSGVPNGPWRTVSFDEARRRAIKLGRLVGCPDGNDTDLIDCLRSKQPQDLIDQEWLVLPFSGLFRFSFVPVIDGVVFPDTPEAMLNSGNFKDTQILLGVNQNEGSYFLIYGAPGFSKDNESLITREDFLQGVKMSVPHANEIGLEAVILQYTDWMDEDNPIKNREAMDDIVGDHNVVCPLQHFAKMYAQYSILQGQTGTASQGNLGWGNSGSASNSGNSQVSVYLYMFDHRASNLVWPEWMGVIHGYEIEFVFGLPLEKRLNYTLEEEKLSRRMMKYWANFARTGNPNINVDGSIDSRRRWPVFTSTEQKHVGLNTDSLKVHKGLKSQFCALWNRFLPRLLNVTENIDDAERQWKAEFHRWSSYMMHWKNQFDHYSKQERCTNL

AChE [4] = conditions: rat synaptosomal membrane as enzyme source; cited from earlier work

T1 sequence (O42275 24-633): as above

SMILES | fold less active than nantenine (AChE inhibition) [1] | pKi [2] | mode of inhibition ([2]; Lineweaver-Burk plot) | activity in TLC anticholinesterase bioautographic assay (AChE [3]) | activity in AChE assay (AChE [4])
COc1cc2c(c(-c3ccc4c(c3)OCO4)c1OC)CN(C)CC2 [Compound 15a, 8-(benzo[d][1,3]dioxol-5-yl)-6,7-dimethoxy-2-methyl-1,2,3,4-tetrahydroisoquinoline] | approximately two-fold | – | – | – | –
COc1cc2c(c(-c3ccc4c(c3)OCO4)c1OC)C(C)N(C)CC2 (stereo not drawn) [Compound 15b, 8-(benzo[d][1,3]dioxol-5-yl)-6,7-dimethoxy-1,2-dimethyl-1,2,3,4-tetrahydroisoquinoline] | approximately two-fold | – | – | – | –
COc1cc2c3c(c1OC)-c1cc4c(cc1CC3N(C)CC2)OCO4 (stereo not drawn) [Nantenine (8), nantenine] | – | 4.73 | mixed inhibition | showed activity | inactive
